Measured values published in article PMC7465886, “4-(N-Alkyl- and -Acyl-amino)-1,2,4-triazole-3-thione Analogs as Metallo-β-Lactamase Inhibitors: Impact of 4-Linker on Potency and Spectrum of Inhibition” (Biomolecules, 2020).

What was measured:
VIM-4 = target: T1, VIM-4 (Pseudomonas aeruginosa, UniProt A0A0F7KYQ8, S205R); assay: MBL inhibition, reporter substrate method, VIM-4; type: biochemical; conditions: read-out: Inhibition of VIM-4 (dash)
T1 construct: made in house; host or cells: E. coli BL21(DE3) derivative, pET-9a
Description: (§1) Compounds were prepared in DMSO at a final concentration of 50 mM prior to dilution in the assay buffer. The reaction rate was measured as the variation of absorbance observed upon substrate hydrolysis in a UV-Vis spectrophotometer or microplate reader at a wavelength of 300 nm (imipenem, meropenem), 260 nm (cefotaxime), or 482 nm (nitrocefin) and in the presence of a purified MBL enzyme (such as VIM-1, VIM-2, VIM-4, NDM-1, and IMP-1, at a final concentration ranging from 1 to 70 nM).
(§2) These enzymes were overproduced in derivatives of E. coli BL21(DE3) carrying a pET-9 a (IMP-1, VIM-1, VIM-2, and VIM-4) or pET-15 b (NDM-1) vector into which the metallo-β-lactamase-encoding open reading frame was cloned. Bacterial strains were grown in the auto-inducing medium, ZYP-5052, supplemented with 50 μg/mL kanamycin for 24 h at 37 °C [38]. IMP-1, VIM-1, VIM-2, and VIM-4 were purified by ion-exchange and gel filtration chromatography using an AKTA Purifier platform (GE Healthcare, Uppsala, Sweden) as previously described. NDM-1 (residues 37-270) was produced as an amino-terminal 6 xHis-tag fusion protein and was purified using affinity chromatography. After growth for 26 h at 25 °C, bacterial cells were harvested by centrifugation (10,000× g, 30 min, 4 °C), resuspended in 10 mM HEPES buffer (pH 7.5) containing 0.15 M NaCl (buffer A) in one-fifth of the original culture volume, and lysed by sonication. Cellular debris was removed by centrifugation (12,000× g, 40 min, 4 °C). The clarified sample was loaded on a HisTrap HP column (bed volume, 5 mL; GE Healthcare), followed by a wash step (25 mL) with buffer A containing 20 mM imidazole. Proteins were eluted using buffer A containing 350 mM imidazole. The resulting protein sample was desalted (HiPrep 26/10 Desalting column, GE Healthcare) using 20 mM triethanolamine (pH 7.2) supplemented with 50 μM ZnSO4 and concentrated using an Amicon Ultra-15 (MW cut-off, 10 kDa; Millipore, Burlington, MA, USA). The concentrated sample was loaded on a Superdex 75 prep grade column (XK16/100 column; bed volume, 140 mL; GE Healthcare) and the proteins eluted with buffer A containing 50 μM ZnSO4. The active fractions were pooled and stored at −20 °C. The purity of the protein preparations was estimated >95% by SDS-PAGE analysis. The authenticity of the enzyme preparations was confirmed by electron spray ionization mass spectrometry, as previously described.
(§3) The inhibition constants (Ki) were determined on the basis of a model of competitive inhibition by analyzing the dependence of the ratio v0/vi (v0, hydrolysis velocity in the absence of inhibitor; vi, hydrolysis velocity in the presence of inhibitor) as a function of [I] as already described. The slope of the plot of v0/vi vs. [I], which corresponds to Km^S/(Km^S + [S])Ki (where Km^S is the Km value of the reporter substrate and [S] its concentration in the reaction mixture) and allowed the calculation of the Ki value. Alternatively, a Dixon plot analysis was carried out by measuring the initial hydrolysis rates in the presence of variable concentrations of inhibitor and substrate. This allowed Ki values to be determined and supported the hypothesis that the various compounds behaved as competitive inhibitors of the various tested enzymes. The assays were performed in triplicate.

[1] = test system: E. coli LZ2310(pLBII-VIM-2); assay: microbe, parasite or virus in culture; type: cell-based, Escherichia coli
Description: The potential activity of selected compounds was assessed by the agar disk-diffusion method, according to the CLSI (Clinical Laboratory Standard Institute) recommendations, using Mueller–Hinton medium. The inhibitor (dissolved in DMSO) was added (maximum volume of 15 μL) to a commercially available disk containing a defined amount of a β-lactam antibiotic (30 μg of cefoxitin (Oxoid, Milan, Italy)). After incubation (18 h at 35 °C), the diameter of the growth inhibition zone was measured and compared to that obtained in the absence of inhibitor. DMSO and EDTA (220 μg) were used as negative and positive controls, respectively. Experiments were performed in triplicate.
These tests were performed on an isogenic laboratory strain obtained after transforming Escherichia coli LZ2310 strain with a derivative of the high copy number plasmid pLB-II carrying the cloned blaVIM-2 gene harboring a cloned gene encoding the functional metallo-β-lactamase. Strain LZ2310 is a triple knockout mutant derived from K12 in which the genes encoding for components of the three major efflux pump systems were inactivated (genotype, ∆norE ∆mdfA N43 acrA1) and was used to generate an hyperpermeable background for MBL production and investigate the potential contribution of such mechanisms to inhibitor efflux.

IMP-1 = target: T2, IMP-1 (Serratia marcescens, UniProt P52699); assay: MBL inhibition, reporter substrate method, IMP-1; type: biochemical; conditions: read-out: Inhibition of IMP-1 (dash in Ki column)
T2 construct: made in house; host or cells: E. coli BL21(DE3) derivative, pET-9a
T2 sequence (P52699 19-246 limits assumed): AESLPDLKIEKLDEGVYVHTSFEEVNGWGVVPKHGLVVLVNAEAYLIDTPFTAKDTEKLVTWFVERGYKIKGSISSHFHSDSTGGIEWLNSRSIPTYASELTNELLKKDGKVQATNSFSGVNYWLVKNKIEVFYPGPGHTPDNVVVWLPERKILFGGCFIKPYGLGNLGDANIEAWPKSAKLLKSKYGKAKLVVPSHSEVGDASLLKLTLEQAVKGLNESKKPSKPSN
Description: as §1, §2, §3

NDM-1 = NDM-1 (Klebsiella pneumoniae, UniProt C7C422); assay: MBL inhibition, reporter substrate method, NDM-1; type: biochemical
Chain of NDM-1 (C7C422 37-270 limits assumed): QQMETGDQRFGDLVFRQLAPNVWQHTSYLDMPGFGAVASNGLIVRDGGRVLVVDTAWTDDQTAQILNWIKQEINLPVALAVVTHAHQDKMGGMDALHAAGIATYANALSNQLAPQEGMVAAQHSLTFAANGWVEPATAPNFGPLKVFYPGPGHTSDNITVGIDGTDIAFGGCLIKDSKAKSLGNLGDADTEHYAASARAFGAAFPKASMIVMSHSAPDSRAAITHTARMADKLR
Description: as §1, §2, §3

L1 = target: T3, L1 (Stenotrophomonas maltophilia, UniProt P52700); assay: MBL inhibition, L1 (nitrocefin hydrolysis); type: biochemical; conditions: 100 μM inhibitor; read-out: Inhibition of L1 (dash)
T3 construct: made in house
T3 sequence (P52700 34-290): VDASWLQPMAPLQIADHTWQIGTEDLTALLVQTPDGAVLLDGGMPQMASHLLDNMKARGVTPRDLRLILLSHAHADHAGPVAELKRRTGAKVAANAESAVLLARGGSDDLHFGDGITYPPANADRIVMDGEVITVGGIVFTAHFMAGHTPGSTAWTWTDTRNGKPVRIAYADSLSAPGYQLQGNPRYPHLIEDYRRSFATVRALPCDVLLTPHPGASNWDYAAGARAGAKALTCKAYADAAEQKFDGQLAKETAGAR
Description: Compounds were prepared as 10 mM solutions in DMSO before dilution with appropriate buffers. Buffers were 25 mM Hepes pH 7.5 for CphA or 25 mM Hepes pH 7.5, 50 µM ZnCl2 for L1. The rates in the absence of inhibitor were not modified by addition of 1% DMSO. CphA and L1 enzymes, purified as previously described, were used at concentrations between 0.2 and 0.8 nM, respectively. The enzyme and the inhibitor (100 µM) were pre-incubated for 30 min in a volume of 495 µL at room temperature. The hydrolysis of a solution of 100 µM imipenem for CphA was monitored by following the absorbance variation at 300 nm using a Specord 50 PLUS spectrophotometer (Analytik Jena, Jena, Germany). For L1, the reporter substrate was nitrocefin (100 µM). The enzyme activity was measured by following the absorbance variation at 482 nm. The substrate hydrolysis was done at 30 °C. The activity was tested by measuring the initial rates in three samples without inhibitor that allowed to determine the percentage of residual β-lactamase activity in the presence of inhibitors. If the residual activity in the presence of 100 µM inhibitor was <30%, the initial rate conditions were used to study the inhibition in the presence of increasing concentrations of compounds (from 1 to 100 µM) and to determine the competitive inhibition constant Ki. The Hanes linearization of the Henri–Michaelis equation was used, and Ki was calculated on the basis of the following equation, v = (Vmax.S)/[S + Km(1 + I/Ki)]. The assays were performed in triplicates.

[2] = Escherichia coli, read-out: Inhibition Zone Diameter

`O=C(O)c1ccccc1CNn1c(-c2ccccc2)n[nH]c1=S` [Compound 1] was tested, and the inhibition at 100 µM (VIM-4) was under 30%, the “Restoration of cefoxitin activity (in words)” value ([1]; 30 μg cefoxitin disk, compound 1 at 48 μg, EUCAST clinical breakpoints) was “able to restore cefoxitin susceptibility” and the zone of inhibition at 16 µg/disc [1, 2] was 13 mm. For the same molecule, the zone of inhibition at 32 µg/disc [1, 2] was 16 mm, the zone of inhibition at 48 µg/disc [1, 2] was 20 mm and the inhibition at 100 µM (IMP-1) was under 40%. The “Inhibition of NDM-1 (in words)” value (NDM-1) was “inactive”, the inhibition at 100 µM (NDM-1; read-out: Inhibition of NDM-1 (dash in Ki column)) was under 40% and the inhibition at 100 µM (L1) was under 30%.
